Results: PMC11259132, “Tyrosine phenol-lyase inhibitor quercetin reduces fecal phenol levels in mice” (PNAS Nexus, 2024)
Like-named read-outs stand apart in the source and are kept apart here. Values belong to the compound of their own block, whether it stands above or below them.

Assays:
Format in all cases: biochemical
[1] = molecular target: T1, Tyrosine phenol-lyase (TPL) (Citrobacter koseri, UniProt A8AM34); test: recombinant TPL assay at […] inhibitor, phenol by LC-MS
T1 construct: recombinant TPL from C. koseri (JCM1658), pET-15b
T1 sequence (A8AM34 1-465): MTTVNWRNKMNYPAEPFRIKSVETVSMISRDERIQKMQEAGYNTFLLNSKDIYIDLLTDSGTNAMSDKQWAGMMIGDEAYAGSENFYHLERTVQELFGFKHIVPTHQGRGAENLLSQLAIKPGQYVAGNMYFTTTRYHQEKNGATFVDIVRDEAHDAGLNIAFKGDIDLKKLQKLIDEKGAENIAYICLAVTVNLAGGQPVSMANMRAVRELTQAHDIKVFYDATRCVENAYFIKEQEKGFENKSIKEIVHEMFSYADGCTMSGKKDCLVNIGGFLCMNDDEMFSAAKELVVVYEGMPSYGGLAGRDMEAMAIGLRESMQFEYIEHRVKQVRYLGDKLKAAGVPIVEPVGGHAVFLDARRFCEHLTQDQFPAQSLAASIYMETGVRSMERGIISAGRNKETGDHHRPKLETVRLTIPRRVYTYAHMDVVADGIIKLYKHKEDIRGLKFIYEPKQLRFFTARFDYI

[2] = molecular target: T2, Tyrosine phenol-lyase (TPL) (Morganella morganii, UniProt J7TAF3); test: recombinant TPL assay, phenol by LC-MS; Lineweaver-Burk kinetics
T2 construct: recombinant TPL from M. morganii ssp. morganii (JCM1672), pET-15b
T2 sequence (J7TAF3 1-456): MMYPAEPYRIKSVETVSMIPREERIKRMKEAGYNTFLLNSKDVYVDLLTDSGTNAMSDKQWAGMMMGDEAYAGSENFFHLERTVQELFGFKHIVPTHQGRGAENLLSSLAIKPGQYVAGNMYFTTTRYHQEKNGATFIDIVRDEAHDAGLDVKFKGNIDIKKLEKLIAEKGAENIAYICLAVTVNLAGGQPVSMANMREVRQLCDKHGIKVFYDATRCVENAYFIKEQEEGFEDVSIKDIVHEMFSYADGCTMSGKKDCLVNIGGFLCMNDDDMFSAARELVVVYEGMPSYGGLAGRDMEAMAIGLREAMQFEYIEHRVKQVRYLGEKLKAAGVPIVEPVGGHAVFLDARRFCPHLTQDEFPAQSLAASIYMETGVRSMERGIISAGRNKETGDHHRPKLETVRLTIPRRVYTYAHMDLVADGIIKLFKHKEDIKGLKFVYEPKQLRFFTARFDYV

[3] = molecular target: T2, Tyrosine phenol-lyase (TPL)

SMILES: O=c1c(O)c(-c2ccc(O)c(O)c2)oc2cc(O)cc(O)c12 [quercetin]
- recombinant TPL assay at 500 μM inhibitor, phenol by LC-MS [1]: The strongest inhibitory activity of quercetin was confirmed using another recombinant TPL isolated from Citrobacter koseri (JCM1658; Fig. 1B)
- Ki [2]: 19.9 µM

- Ki ([2]; read-out: Ki): 42 µM
SMILES: N[C@@H](Cc1ccc(O)cn1)C(=O)O [2-aza-Tyr]

SMILES: O=c1c(O)c(-c2ccc(O)cc2)oc2cc(O)cc(O)c12 [kaempferol]
- recombinant TPL assay at 500 μM inhibitor, phenol by LC-MS [3]: structural analogs of quercetin, including taxifolin, kaempferol, luteolin, and myricetin, significantly inhibited TPL-catalyzed phenol production

SMILES: O=C1c2c(O)cc(O)cc2O[C@H](c2ccc(O)c(O)c2)[C@H]1O [taxifolin]
- recombinant TPL assay at 500 μM inhibitor, phenol by LC-MS [3]: structural analogs of quercetin, including taxifolin, kaempferol, luteolin, and myricetin, significantly inhibited TPL-catalyzed phenol production

SMILES: O=c1cc(-c2ccc(O)c(O)c2)oc2cc(O)cc(O)c12 [luteolin]
- recombinant TPL assay at 500 μM inhibitor, phenol by LC-MS [3]: structural analogs of quercetin, including taxifolin, kaempferol, luteolin, and myricetin, significantly inhibited TPL-catalyzed phenol production
